From US20250057951A1, “DISCERNIBLE CELL SURFACE PROTEIN VARIANTS OF CD117 FOR USE IN CELL THERAPY” (UNIVERSITÄT BASEL, priority 2021, published 2025)
Each block holds one molecule with its values, some of them ahead of it.

Assays:
antibody Refmab #1 [1] = assay: Octet titration, steady state KD of CD117 D1-2-3 variants to Refmab #1; type: binding; conditions: nm shift higher than 0.1 nm counts as binding
Description: To further characterize binding of Refmab #1 to CD117 D1-2-3 variants E73K, E73L, E73R, E73Y, D121H, D121K, S123K and S123F, the analytes were titrated at 7 different concentrations (from 2000 nM to 5 nM). Antibody Refmab #1 was captured by AHC biosensors for 300 s at 0.5 to 1 μg/mL. Association and dissociation to Refmab #1 was extended to 600 s and 1000 s, respectively. Steady state analysis was performed.

TF-1 cells [2] = assay: SCF-dependent proliferation, SCF titration on TF-1 cells with CD117 variants (CellTiter-Glo); type: cell-based, human; conditions: for EC50 Average: average of two experiments; for EC50 Experiment #1 / EC50 Experiment #2: titration of SCF, 3 days, TF-1 cells with the CD117 variant
How it was run: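 TF-1 cells expressing wildtype or variant CD117 seeded at 150 000 cells/ml in RPMI+GlutaMax+10% FCS and titrated with SCF. Viability read by CellTiter-Glo 2.0 luminescence after 3 days; EC50 determined from two experiments, each in triplicate.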

TF-1 cells [3] = assay: SCF-dependent phosphorylation of CD117 variants in TF-1 cells (Tyr719 ELISA); type: cell-based, human; conditions: 1-20 ng/ml SCF for 5 minutes
Description: TF-1 cells (wild type, knock out, and variants E73K, D121K and S123K of CD117) were seeded at a concentration of 1 million cells/ml in 2 ml of Medium (RPMI1640 supplemented with GlutaMAX+10% heat inactivated FBS) in a 6-well plate. Cells were treated with 1-20 ng/ml recombinant human SCF (1 mg/ml PeproGMP Recombinant Human SCF) for 5 minutes, before cell collection. Cells were washed with ice-cold PBS, before resuspending cells in 500 μL Lysis Buffer (Lysis buffer from Signaling containing Protease Inhibitor and Phosphatase Inhibitor). Cells were flash frozen in liquid nitrogen and thawed at 37° C. twice, before freezing them at −80° C. until further usage. Undiluted samples were thawed and processed according to the manufacturers protocol for the PathScan Phospho-c-Kit (Tyr719) Sandwich ELISA Kit (Cell Signaling). Absorbance (OD_450 nm) was assessed using the Envision (Perkin Elmer).

Refmab #1 = Refmab #1 titration on engineered TF-1 cells (flow cytometry); type: binding; conditions: 5-0.00015 μg/mL antibody; 4° C.
Description: Binding of Refmab #1 was assessed in a flow cytometry assay. TF-1 cells were seeded at a cell concentration of 1,000,000 cells/ml in FACS Buffer (PBS+2% FCS+1 mM EDTA). After a Fc blocking using 1:20 diluted TruStain (BioLegend, #422302) in FACS buffer for 15 minutes at 4° C., cells were washed twice with FACS buffer. Subsequently, a SR-1 titration was added to the cells using 5-0.00015 μg/mL antibody for 30 minutes at 4° C. on a plate shaker. Cells were washed twice with FACS buffer and a secondary labelled antibody (IgG (H+L) Cross-Adsorbed Goat anti-Human, Alexa Fluor® 488, Invitrogen, A11013) was added to the cells for 30 minutes at 4° C. on a plate shaker. Cells were washed twice with FACS buffer, before adding 1:100 diluted solution of 7AAD staining (cell viability) in FACS buffer for a couple of minutes and analyzing the cells using the Novocyte Quanteon (Agilent).

antibody Refmab #1 [4] = assay: Octet screen: binding of CD117 D1-2-3 variants to captured Refmab #1; conditions: nm shift at end of association, top analyte concentration (500 nM)
How it was run: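 Refmab #1 captured on anti-human Fc biosensors; human CD117 D1-2-3 wt or variants flowed as analyte at 500, 50 and 5 nM, 25° C., 300 s association/900 s dissociation, buffer-referenced. Binding level at top concentration, end of association, expressed as percent of wild type; 1:1 fits where possible.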

CD117 = assay: Blocking of SCF-induced CD117 phosphorylation (Tyr719 ELISA), wild type TF-1 cells; type: cell-based, human; conditions: 0.5 ug/mL antibody or 500 nM avapritinib; 100 ng/ml SCF 5 minutes
Description: (§1) SCF-dependent phosphorylation is another function of CD117. SCF-dependent phosphorylation was measured using TF-1 cells expressing CD117 (as shown in previous experiments). TF-1 cells were seeded at a concentration of 1 million cells/ml in 1 ml of Medium (RPMI1640 supplemented with GlutaMAX+10% heat inactivated FBS) in a 6-well plate. Cells were treated with 0.5 ug/mL antibody or 500 nM avapratinib. Cells were then treated with 100 ng/ml recombinant human SCF (1 mg/ml PeproGMP® Recombinant Human SCF) for 5 minutes, before cell collection. Cells were washed with ice-cold PBS, before resuspending cells in 250 μL Lysis Buffer (Lysis buffer from Signaling containing Protease Inhibitor and Phosphatase Inhibitor). Cells were flash frozen in liquid nitrogen and thawed at 37° C. twice, before freezing them at −80° C. until further usage. Undiluted samples were thawed and processed according to the manufacturers protocol for the PathScan® Phospho-c-Kit (Tyr719) Sandwich ELISA Kit (Cell Signaling). Absorbance (OD_450 nm) was assessed using the Envision (Perkin Elmer).
(§2) TF-1 cells (wild type, and variants E73K, E73Y, D121K, S123F and S123K of CD117) were seeded at a concentration of 1 million cells/mL in 2 ml of Medium (RPMI1640 supplemented with GlutaMAX+10% heat inactivated FBS) in a 6-well plate. Cells were pre-treated with 0.5 μg/ml of antibodies Refmab #1-Ernie or Refmab #1-Bert for 30 minutes, before adding 100 ng/ml recombinant human SCF (1 mg/mL PeproGMP® Recombinant Human SCF) for 5 minutes. Cells were collected, washed once with ice-cold PBS and resuspended in 500 μL Lysis Buffer (Lysis buffer from Signaling containing Protease Inhibitor and Phosphatase Inhibitor). Cells were then flash frozen in liquid nitrogen and thawed at 37° C. twice, before freezing them at −80° C. until further usage. Undiluted samples were thawed and processed according to the manufacturers protocol for the PathScan Phospho-c-Kit (Tyr719) Sandwich ELISA Kit (Cell Signaling) or the Human c-Kit (CD117) ELISA Kit (Abcam). Absorbance (OD_450 nm) was assessed using the Envision (Perkin Elmer).

variants of CD117 = assay: Blocking of SCF-induced CD117 phosphorylation (Tyr719 ELISA), TF-1 cells with CD117 variants; type: cell-based, human; conditions: 0.5 ug/mL antibody or 500 nM avapritinib; 100 ng/ml SCF 5 minutes
Description: as §1, §2

[5] = system: TF-1 cells with knock-ins of CD117 variants; assay: Inhibition of SCF-dependent proliferation, TF-1 cells with CD117 variant knock-in; type: cell-based, human; conditions: 100 ng/ml SCF; increasing concentrations; 3 days; E73K; all variants tested
Description: (§3) SCF-dependent proliferation is another function of CD117. SCF-dependent proliferation was measured as follows: TF-1 cells were seeded at a cell concentration of 150 000 cells/ml in sterile, white cell culture treated plates in RPMI Media+10% FCS. Cells were treated with 100 ng/ml of SCF and a titration of various CD117 antibodies or an isotype control antibody at different concentrations. After 3 days of incubation a CellTiter-Glo 2.0 assay (Promega) was performed and luminescence was read in a luminometer (e.g. Envision or Phera Star plate readers).
CD117 wild-type TF-1 cells were compared to TF1 cells with a E73K knock in. […] Both KI1 and KI2 were obtained upon sorting the edited TF1 cells using the SONY MA900, removing any wild-type and knock out cells from the final subsets, thus yielding high purity of knock in.
(§4) Next, proliferation of the variants was tested with increasing concentrations of RefMab #1 at a constant concentration of SCF (100 ng/ml). TF-1 cells were seeded at a cell concentration of 150 000 cells/ml in sterile, white cell culture treated plates with transparent bottom in RPMI+GlutaMax+10% FCS and a fix concentration of 100 ng/ml SCF in the media, Cells were treated with different concentrations of RefMab #1. After 3 days of incubation a CellTiter-Glo 2,0 assay (Promega) was performed, luminescence was read in a luminometer (Envision plate reader).

wild type TF-1 cells = assay: Inhibition of SCF-dependent proliferation, wild type TF-1 cells; type: cell-based, human; conditions: 100 ng/ml SCF; increasing concentrations; 3 days
Description: as §3, §4

human wild-type CD117 [6] = target: T1, human wild-type CD117 (human, UniProt P10721 26-976); assay: flow cytometry, HEK-293T with wt CD117 vs vector alone, IgG at 0.125 µg/mL
T1 construct: also called wt CD117; KIT
Description: Binding of the antibodies to the transfected cells and the optimal assay conditions were evaluated in 384-well format. Detection of cellular expression was measured via high-throughput flow cytometry. Serial dilutions of each antibody were tested for immunoreactivity against cells expressing CD117 or vector alone. The optimal screening concentration for each antibody was determined based on the raw signal values and signal-to-background calculations. Each point represents the mean of four replicates.

human wild-type CD117 [7] = target: T1, human wild-type CD117; assay: flow cytometry, HEK-293T with wt CD117 vs vector alone, Fab at 1.00 µg/mL

Sequence of antibody Refmab #1 (as listed by the source): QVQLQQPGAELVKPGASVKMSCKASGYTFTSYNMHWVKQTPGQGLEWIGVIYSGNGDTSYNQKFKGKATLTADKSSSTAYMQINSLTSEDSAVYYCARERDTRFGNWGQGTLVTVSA
Sequence of antibody Refmab #1 (as listed by the source): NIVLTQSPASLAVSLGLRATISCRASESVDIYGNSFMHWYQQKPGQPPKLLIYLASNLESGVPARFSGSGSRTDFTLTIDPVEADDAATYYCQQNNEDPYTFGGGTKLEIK

binding of Refmab #1 at 2000 nM variant (antibody Refmab #1 [1]): No binding | binding to Refmab #1 compared to wild type (antibody Refmab #1 [4]): particular strong decrease in binding
Molecule: D121K: variant of human CD117 with substitution D121K
EC50 Average (TF-1 cells [2]): 3.70 ± 0.45 ng/mL | EC50 Experiment #1 (TF-1 cells [2]): 4.15 ng/mL | EC50 Experiment #2 (TF-1 cells [2]): 3.25 ng/mL | SCF-dependent phosphorylation at position Tyr719 of CD117 (TF-1 cells [3]): showed a SCF-dependent phosphorylation | Binding of Refmab #1 to TF-1 cells expressing the CD117 variant (Refmab #1): completely abolished

binding of Refmab #1 at 2000 nM variant (antibody Refmab #1 [1]): No binding | binding to Refmab #1 compared to wild type (antibody Refmab #1 [4]): particular strong decrease in binding
Molecule: S123K: variant of human CD117 with substitution S123K
EC50 Average (TF-1 cells [2]): 3.54 ± 0.23 ng/mL | EC50 Experiment #1 (TF-1 cells [2]): 3.76 ng/mL | EC50 Experiment #2 (TF-1 cells [2]): 3.31 ng/mL | SCF-dependent phosphorylation at position Tyr719 of CD117 (TF-1 cells [3]): showed a SCF-dependent phosphorylation | Binding of Refmab #1 to TF-1 cells expressing the CD117 variant (Refmab #1): completely abolished

Molecule: Cn1cc(-c2cc3c(N4CCN(c5ncc([C@@](C)(N)c6ccc(F)cc6)cn5)CC4)ncnn3c2)cn1 [avapritinib, reference compound]
blocking of SCF-induced phosphorylation, wild type cells (CD117): blocked | blocking of SCF-induced phosphorylation, E73K variant (variants of CD117): still blocks | effect on SCF-dependent proliferation of TF-1 cells with CD117 variants [5]: no proliferation | effect on SCF-dependent proliferation of wild type TF-1 cells (wild type TF-1 cells): no proliferation

Signal:Background (human wild-type CD117 [6]): 10 ratio to background
B1: Refmab #5 (antibody, V domains shown)
VH: EVRLVESEGGLVQPRSSMKLSCTASGFTFSDYYMAWVRQVPEKGLEWVANINYDGSSTYYLDSLKSRFIISRDNAKNILYLQMSSLKSEDTATYYCARGDYYGTTYWYFDVWGTGTTVTVSS
VL: DIQMTQTTSSLSASLGDRVTISCRASQDISNYLNWYQQKPDGTVKLLIYYTSRLQSGVPSRFSGSGSGTDYSLTISNLEQEDIATYFCQQGKKLWSFGGGTKLEIKR

Signal:Background (human wild-type CD117 [7]): 7 ratio to background
B2: Refmab #5 Fab fragment (Fab, V domains shown)
VH: EVRLVESEGGLVQPRSSMKLSCTASGFTFSDYYMAWVRQVPEKGLEWVANINYDGSSTYYLDSLKSRFIISRDNAKNILYLQMSSLKSEDTATYYCARGDYYGTTYWYFDVWGTGTTVTVSS
VL: DIQMTQTTSSLSASLGDRVTISCRASQDISNYLNWYQQKPDGTVKLLIYYTSRLQSGVPSRFSGSGSGTDYSLTISNLEQEDIATYFCQQGKKLWSFGGGTKLEIKR

Signal:Background (human wild-type CD117 [6]): 7 ratio to background
B3: Refmab #4 (antibody, V domains shown)
VH: EVQLVESGGGLVQPGGSLRLSCAASGFSISVYMMHWVRQAPGKGLEWVASIYPYSGYTYYADSVKGRFTISADTSKNTAYLQMNSLRAEDTAVYYCARYVYHALDYWGQGTLVTVSS
VL: DIQMTQSPSSLSASVGDRVTITCRASQSVSSAVAWYQQKPGKAPKLLIYSASSLYSGVPSRFSGSRSGTDFTLTISSLQPEDFATYYCQQWAVHSLITFGQGTKVEIKR

Signal:Background (human wild-type CD117 [7]): 6 ratio to background
B4: Refmab #4 Fab fragment (Fab, V domains shown)
VH: EVQLVESGGGLVQPGGSLRLSCAASGFSISVYMMHWVRQAPGKGLEWVASIYPYSGYTYYADSVKGRFTISADTSKNTAYLQMNSLRAEDTAVYYCARYVYHALDYWGQGTLVTVSS
VL: DIQMTQSPSSLSASVGDRVTITCRASQSVSSAVAWYQQKPGKAPKLLIYSASSLYSGVPSRFSGSRSGTDFTLTISSLQPEDFATYYCQQWAVHSLITFGQGTKVEIKR
